Consider two compounds from patent US12329758B2, “Methods for the treatment of psoriatic arthritis” (Alfasigma S.p.A., priority 2018, dated 2025).

The target of one data set is JAK1 (Homo sapiens, UniProt P23458). In words: inhibition of JAK1 signaling by the metabolite relative to the parent. Particulars: relative to compound I. The text has this:
(§1) Though the potency of this metabolite is lower than the parent molecule, the overall exposure and peak plasma concentration in humans is higher than seen in all tested animal species. As a consequence, dedicated pharmacology and toxicology studies have been performed with compound II. […] The compound according to formula II is described in WO2013/189771.

Data set [1] is described as follows: abundance of the metabolite relative to the parent compound in humans. It counts as in vivo, human. Particulars: relative to compound I.
From the text: as §1

Data set [2] relates to active psoriatic arthritis. Particulars: cited from earlier work.

Read-outs that look alike come from different tables or passages of the source.

JAK1, sequence (P23458 whole entry, species assumed): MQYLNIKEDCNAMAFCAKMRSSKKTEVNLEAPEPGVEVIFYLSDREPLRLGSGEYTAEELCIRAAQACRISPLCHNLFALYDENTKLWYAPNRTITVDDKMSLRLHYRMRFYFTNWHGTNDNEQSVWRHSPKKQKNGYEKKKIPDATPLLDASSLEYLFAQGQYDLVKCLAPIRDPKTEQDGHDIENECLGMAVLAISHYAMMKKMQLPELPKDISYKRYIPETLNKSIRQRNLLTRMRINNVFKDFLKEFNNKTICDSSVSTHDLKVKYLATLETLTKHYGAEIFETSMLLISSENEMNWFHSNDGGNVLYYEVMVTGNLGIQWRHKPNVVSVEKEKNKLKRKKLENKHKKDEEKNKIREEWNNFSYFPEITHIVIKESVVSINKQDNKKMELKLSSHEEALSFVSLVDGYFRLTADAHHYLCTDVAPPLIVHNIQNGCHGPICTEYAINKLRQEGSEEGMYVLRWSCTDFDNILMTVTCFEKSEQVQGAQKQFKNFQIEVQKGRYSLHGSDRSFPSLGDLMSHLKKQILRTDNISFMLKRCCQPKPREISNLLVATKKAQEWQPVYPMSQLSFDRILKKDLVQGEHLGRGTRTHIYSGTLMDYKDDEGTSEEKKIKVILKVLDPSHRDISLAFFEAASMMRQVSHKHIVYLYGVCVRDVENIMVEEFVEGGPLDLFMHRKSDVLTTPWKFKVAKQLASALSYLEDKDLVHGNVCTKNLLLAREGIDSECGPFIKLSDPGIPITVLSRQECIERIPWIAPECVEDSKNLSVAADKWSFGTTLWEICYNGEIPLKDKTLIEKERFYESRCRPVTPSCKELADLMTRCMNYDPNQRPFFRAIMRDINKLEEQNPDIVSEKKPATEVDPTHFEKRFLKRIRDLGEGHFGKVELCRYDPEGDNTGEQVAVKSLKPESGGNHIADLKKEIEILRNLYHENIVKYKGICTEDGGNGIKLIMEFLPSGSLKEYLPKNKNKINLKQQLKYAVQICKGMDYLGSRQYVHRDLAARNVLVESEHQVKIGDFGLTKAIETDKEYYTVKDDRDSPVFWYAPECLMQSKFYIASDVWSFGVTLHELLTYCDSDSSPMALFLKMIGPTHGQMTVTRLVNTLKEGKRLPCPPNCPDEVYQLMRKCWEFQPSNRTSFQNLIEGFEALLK

In the case of `Nc1nc2cccc(-c3ccc(CN4CCS(=O)(=O)CC4)cc3)n2n1` [compound II], on JAK1, the “potency on JAK1 signaling, fold less potent than parent compound” value is on record as “approximately 20 fold”. In addition, in data set [1], the “abundance, fold more abundant than the parent compound” value is on record as “about 10 fold”.

As to `C[C@@H]1CCN(C(=O)CC#N)C[C@@H]1N(C)c1ncnc2[nH]ccc12` [tofacitinib], the ACR20 response rate in data set [2] (month 3, dosed at 5 mg) is reported as 50%; in data set [2] (month 3, dosed at 10 mg) it was 61%.
